Common to all, as to type: cell-based
In data set [1] the test system is HSV-1 (herpes simplex virus type 1, strain Schooler). The experiment in a line: HSV-1 antiviral assay (plaque reduction in WI-38 cell monolayers). As to conditions: Human alphaherpesvirus 1, 96 h; WI-38 cells; plaque reduction of at least 50%; 4 days at 37° C.; read-out: ID50 for HSV-1. How it is done:
(§1) Assays were performed in cell culture systems to determine the concentrations of compounds that are effective in preventing several kinds of viral infections. HSV-1 (herpes simplex virus type 1, strain Schooler), HSV-2 (herpes simplex virus type 2, strain 186), VZV (varicella zoster virus, strain ELLEN), MuLV (murine leukemia virus, strain CAS), HIV (human immunodeficiency virus, strain HTLV-IIIB). Cell Culture Assays: HSV-1, HSV-2, and VZV antiviral assays: Virus was adsorbed to WI-38 cell culture monolayers in 6 well culture plates (Costar, Cambridge, Mass.) for 1 hour prior to addition of maintenance medium containing duplicate dilutions of the test compound. Inhibition of plaque development was evaluated on fixed and stained monolayers after 4 days incubation at 37° C. for HSV-1 and HSV-2 and after 6-7 days incubation at 37° C. for VZV. ID50 values were determined from the drug concentration which conferred at least a 50% plaque reduction compared to virus controls.

Data set [2] deals with HSV-2 (herpes simplex virus type 2, strain 186). The experiment in a line: HSV-2 antiviral assay (plaque reduction in WI-38 cell monolayers). As to conditions: Human alphaherpesvirus 2, 96 h; WI-38 cells; plaque reduction of at least 50%; 4 days at 37° C.; read-out: ID50 for HSV-2. How it is done: as §1
Data set [3] deals with VZV (varicella zoster virus, strain ELLEN). As to the kind of experiment: VZV antiviral assay (plaque reduction in WI-38 cell monolayers). As to conditions: Human alphaherpesvirus 3; WI-38 cells; plaque reduction of at least 50%; 6-7 days at 37° C.; read-out: ID50 for VZV. As to the method: as §1
The subject of data set [4] is MuLV (murine leukemia virus, strain CAS). As to the kind of experiment: MuLV antiviral assay (syncytial plaques, SC-1 cells / XC cells). Conditions: SC1, XC cell overlay, syncytial plaques counted, read-out: ID50 for MuLV. How it is done:
Assays were performed in cell culture systems to determine the concentrations of compounds that are effective in preventing several kinds of viral infections.
HSV-1 (herpes simplex virus type 1, strain Schooler), HSV-2 (herpes simplex virus type 2, strain 186), VZV (varicella zoster virus, strain ELLEN), MuLV (murine leukemia virus, strain CAS), HIV (human immunodeficiency virus, strain HTLV-IIIB). Cell Culture Assays:
MuLV antiviral assay: Antiviral assays using MuLV were performed with some modification, as described by Rowe et al. and Shannon et al.. SC-1 cells were planted at approximately 2×10^5 cell per well in 6 well plates. After overnight incubation at 37° C., the cell cultures were sensitized with DEAE-Dextran for one hour at 37° C., rinsed and inoculated with MuLV. Cultures were re-fed with growth medium containing different concentrations of the test compound. After three more days at 37° C., cultures were re-fed with fresh medium plus test compounds and incubated at 37° C. for an additional 3 days. Cultures were then washed to remove medium, ultraviolet light irradiated, and planted with approximately 5×10^5 XC cells per well in cell growth medium containing the appropriate concentration of the test compound. […] Finally the cultures were rinsed, stained and syncytial plaques were counted. […]

The test system of data set [5] is HIV (human immunodeficiency virus, strain HTLV-IIIB). The experiment in a line: HIV antiviral assay (reduction of viral cytopathic effect in CEM cells, XTT-PMS). As to conditions: Human immunodeficiency virus 1, IIIB, CCRF-CEM, 168 h, minimum drug concentration that inhibits CPE by 50%, 7 days at 37° C., read-out: ID50 for HIV. How it is done:
Assays were performed in cell culture systems to determine the concentrations of compounds that are effective in preventing several kinds of viral infections. HSV-1 (herpes simplex virus type 1, strain Schooler), HSV-2 (herpes simplex virus type 2, strain 186), VZV (varicella zoster virus, strain ELLEN), MuLV (murine leukemia virus, strain CAS), HIV (human immunodeficiency virus, strain HTLV-IIIB). Cell Culture Assays: HIV antiviral assay: Suspensions of CEM cells (P. L. Nara, et. al., Nature 332, 469(1988)) were infected at a multiplicity of infection of 0.12 TCID50 /cell with HIV (strain HTLV-III B). […] Following incubation, viable cell numbers were counted in each well using a colorimetric assay following incubation of cells with XTT-PMS solution (XTT tetrazolium reagent plus phenazine methosulfate, PMS). Percent reduction of viral cytopathic effect (CPE) in drug treated compared to untreated virus infected cells, and percent reduction of cell viability in drug treated uninfected cells compared to untreated controls were calculated and plotted versus the drug concentrations tested. […]
On the technique in general: Cytopathic effects are the visible damage that an infection or toxin causes in cultured cells.

Data set [6] can be described thus: Reduction of viability of uninfected CEM cells (XTT-PMS). As to conditions: human, footnotes *** and **** to HIV, 7 days, read-out: Minimum cytotoxic drug concentration that reduces cell viability by 50%. How it is done:
HIV antiviral assay: Suspensions of CEM cells (P. L. Nara, et. al., Nature 332, 469(1988)) were infected at a multiplicity of infection of 0.12 TCID50 /cell with HIV (strain HTLV-III B). After adsorption for 1-2 hours at 37° C., infected cells were diluted in growth medium (RPMI 1640 containing the antibiotics penicillin plus streptomycin and 10% fetal calf serum) to give a final cell concentration of 1×10^4 viable cells/culture well in the presence of serial dilutions of the test compound, starting at 100 μg/ml. Triplicate samples at each drug concentration were used. Cultures of uninfected CEM cells were similarly prepared and incubated with serial dilutions of test compound in duplicate. All assays were performed in 96 well disposable cell culture plates. Untreated (infected and uninfected) cells were included as controls. […] Following incubation, viable cell numbers were counted in each well using a colorimetric assay following incubation of cells with XTT-PMS solution (XTT tetrazolium reagent plus phenazine methosulfate, PMS). Percent reduction of viral cytopathic effect (CPE) in drug treated compared to untreated virus infected cells, and percent reduction of cell viability in drug treated uninfected cells compared to untreated controls were calculated and plotted versus the drug concentrations tested. […]
(In general: Tetrazolium assays rely on reduction of a dye to a coloured formazan, in cell work by metabolically active cells.)

Data set [7] can be described thus: Cytotoxicity by microscopic examination of the cell sheet. Conditions: human, WI-38 cells.

Take `Nc1nc2c(ncn2[C@H]2C[C@@H](CO)C2)c(=O)[nH]1` [Example 1, (cis)-2-amino-1,9-dihydro-9-[3-(hydroxymethyl)cyclobutyl]-6H-purin-6-one]: the IC50 in data set [1] was 9 to 21 µM; in data set [2], 9 to 21 µM; in data set [3] it was 21 µM; in data set [4] it was 43 to 106 µM; in data set [5], 230 µM. In data set [6], the CC50 at 168 h is greater than 425 µM.
For the molecule `Nc1ncnc2c1ncn2[C@H]1C[C@@H](CO)C1` [Example 2, (cis)-3-(6-Amino-9H-purin-9-yl)cyclobutanemethanol], the IC50 is 456 µM in data set [1]; 456 µM in data set [2]; greater than 114 µM in data set [3]; 23 to 46 µM in data set [4]; 301 µM in data set [5]. Also, in data set [7] (footnote * to HSV-1 and HSV-2, 4 days, read-out: Cytotoxic concentration by microscopic examination of the cell sheet (HSV-1 and HSV-2 assays)), the MCC at 96 h is 456 µM. Further, in data set [7] (footnote ** to VZV, 6-7 days, read-out: Cytotoxic concentration by microscopic examination of the cell sheet (VZV assay)), the MCC came out at 228 µM. Besides, in data set [6], the CC50 at 168 h was greater than 456 µM.

For the origin of these results see patent US5369098A, “Hydroxymethyl cyclobutyl purines” (E. R. Squibb & Sons, Inc., priority 1989, dated 1994).
